Key:
DENV-2 strain 16681 = test: Tetravalent RT-qPCR assay Protocol A, serotype 2; type: cell-based; conditions: Dengue virus, DENV2, 72 h, RT-qPCR serotype 2 16681, Vero cells, day 3
Description: (§1) The antiviral activity of the compounds of the invention was tested against DENV-1 strain TC974#666 (NCPV), DENV-2 strain 16681, DENV-3 strain H87 (NCPV) and DENV-4 strains H241 (NCPV) and EDEN (SG/06K2270DK1/2005; GenBank accession number QG398256) in a RT-qPCR assay. Therefore, Vero cells were infected with either DENV-1, or -2, or -3, or -4 in the presence or absence of test compounds. At day 3 post-infection, the cells were lysed and cell lysates were used to prepare cDNA of both a viral target (the 3′UTR of DENV; table 2) and a cellular reference gene (β-actin, table 2). Subsequently, a duplex real time PCR was performed on a Lightcycler480 instrument. The generated Cp value is inversely proportional to the amount of RNA expression of these targets. Inhibition of DENV replication by a test compound result in a shift of Cp's for the 3′UTR gene. On the other hand, if a test compound is toxic to the cells, a similar effect on β-actin expression will be observed. The comparative ΔΔCp method is used to calculate EC50, which is based on the relative gene expression of the target gene (3′UTR) normalized with the cellular housekeeping gene (β-actin). In addition, CC50 values were determined based on the Cp values acquired for the housekeeping gene β-actin.
(§2) The culture medium consisted of minimal essential medium supplemented with 2% of heat-inactivated fetal calf serum, 0.04% gentamycin (50 mg/mL) and 2 mM of L-glutamine. Vero cells, obtained from ECACC, were suspended in culture medium and 75 μL/well was added in 96-well plates (10000 cells/well), which already contain the antiviral compounds. Typically, these plates contain a 4-fold serial dilution of 9 dilution steps of the test compound at 200 times the final concentration in 100% DMSO (500 nL; final concentration range: 25 μM-0.00038 μM). In addition, each plate contains wells which are assigned as virus controls (containing cells and virus in the absence of compound) and cell controls (containing cells in the absence of virus and compound). Once the cells were added in the plates, the plates were incubated in a fully humidified incubator (37° C., 5% CO2) until the next day. Then, DENV-1 strain TC974#666, DENV-2 strain 16681, DENV-3 strain H87 or DENV-4 strains H241 or EDEN were added. […] In parallel, 25 μL of culture medium was added to the cell controls. Next, the plates were incubated for 3 days in a fully humidified incubator (37° C., 5% CO2). After 3 days, the supernatant was removed from the wells and the cells were washed twice with ice-cold PBS (˜100 μL). The cell pellets within the 96-well plates were stored at −80° C. for at least 1 day. Next, RNA was extracted using the Cells-to-CT™ lysis kit, according to the manufacture's guideline (Applied Biosystems). The cell lysates can be stored at −80° C. or immediately used in the reverse transcription step. In preparation of the reverse transcription step, mix A (table 3A) was prepared and 7.57 μL/well was dispensed in a 96-well plate. After addition of 5 μL of the cell lysates, a five minute denaturation step at 75° C. was performed (table 3B). Afterwards, 7.43 μL of mix B was added (table 3C) and the reverse transcription step was initiated (table 3D) to generate cDNA.
(§3) Finally, a RT-qPCR mix was prepared, mix C (table 4A), dispensed in 96-well LightCycler qPCR plates to which 3 μL of cDNA was added and the qPCR was performed according to the conditions in table 4B on a LightCycler 480. Using the LightCycler software and an in-house LIMS system, dose response curves for each compound were calculated and the half maximal effective concentration (EC50) and the half maximal cytotoxic concentration (CO50) were determined (Tables 6-9).

DENV-4 strain EDEN = test: Tetravalent RT-qPCR assay Protocol A, serotype 4 EDEN; type: cell-based; conditions: Dengue virus, DENV4, 72 h, RT-qPCR serotype 4 EDEN, Vero cells, day 3
Description: as §1, §2, §3

DENV-4 strain H241 = test: Tetravalent RT-qPCR assay Protocol A, serotype 4 H241; type: cell-based; conditions: Dengue virus, DENV4, 72 h, RT-qPCR serotype 4 H241, Vero cells, day 3
Description: as §1, §2, §3

DENV-2 16681 strain = test: DENV-2 antiviral assay (eGFP-labelled virus in Vero cells); type: cell-based, Dengue virus; conditions: DENV-2 16681 eGFP, MOI 0.5, 3 days
Description: The antiviral activity of all the compounds of the invention was tested against DENV-2 16681 strain which was labeled with enhanced green fluorescent protein (eGPF). The culture medium consists of minimal essential medium supplemented with 2% of heat-inactivated fetal calf serum, 0.04% gentamycin (50 mg/mL) and 2 mM of L-glutamine. Vero cells, obtained from ECACC, were suspended in culture medium and 25 μL was added to 384-well plates (2500 cells/well), which already contain the antiviral compounds. Typically, these plates contain a 4-fold serial dilution of 9 dilution steps of the test compound at 200 times the final concentration in 100% DMSO (200 nL). In addition, each compound concentration is tested in quadruplicate (final concentration range: 25 μM-0.00038 μM). Finally, each plate contains wells which are assigned as virus controls (containing cells and virus in the absence of compound), cell controls (containing cells in the absence of virus and compound) and medium controls (containing medium in the absence of cells, virus and compounds). To the wells assigned as medium control, 25 μL of culture medium was added instead of Vero cells. Once the cells were added to the plates, the plates were incubated for 30 minutes at room temperature to allow the cells to distribute evenly within the wells. Next, the plates were incubated in a fully humidified incubator (37° C., 5% CO2) until the next day. Then, DENV-2 strain 16681, labeled with eGFP, was added at a multiplicity of infection (MOI) of 0.5. Therefore, 15 μL of virus suspension was added to all the wells containing test compound and to the wells assigned as virus control. In parallel, 15 μL of culture medium was added to the medium and cell controls. Next, the plates were incubated for 3 days in a fully humidified incubator (37° C., 5% CO2). At the day of the read out, the eGFP fluorescence was measured using an automated fluorescence microscope at 488 nm (blue laser). Using an in-house LIMS system, inhibition dose response curves for each compound were calculated and the half maximal effective concentration (EC50) was determined. Therefore, the percent inhibition (I) for every test concentration is calculated using the following formula: I=100*(ST−SCC)/(SVC−SCC); ST, SCC and SVC are the amount of eGFP signal in the test compound, cell control and virus control wells, respectively. The EC50 represents the concentration of a compound at which the virus replication is inhibited with 50%, as measured by a 50% reduction of the eGFP fluorescent intensity compared to the virus control. The EC50 is calculated using linear interpolation (Table 1).

DENV-1 strain TC974#666 = test: Tetravalent RT-qPCR assay Protocol A, serotype 1; type: cell-based; conditions: Dengue virus, DENV1, 72 h, RT-qPCR serotype 1 TC974#666, Vero cells, day 3
Description: as §1, §2, §3

For `COc1cc(NC(C(=O)c2c[nH]c3c(Cl)c(OC)ccc23)c2ccc(F)cc2OC)cc(OCCO)c1` (single isomer, unassigned) [Compound 8A, 1-(7-chloro-6-methoxy-1H-indol-3-yl)-2-(4-fluoro-2-methoxyphenyl)-2-((3-(2-hydroxyethoxy)-5-methoxyphenyl)amino)ethanone], the EC50 (DENV-2 strain 16681) was 0.9 nM, the EC50 (DENV-4 strain EDEN) was 21 nM and the EC50 (DENV-4 strain H241) was 520 nM. It also gave an EC50 (DENV-2 16681 strain) of 1 nM and an EC50 (DENV-1 strain TC974#666) of 32 nM.
`COc1cc(NC(C(=O)c2c[nH]c3cc(Cl)ccc23)c2ccc(F)cc2OC)cc(OCCO)c1` (single isomer, unassigned) [Compound 4A, 1-(6-chloro-1H-indol-3-yl)-2-(4-fluoro-2-methoxyphenyl)-2-((3-(2-hydroxyethoxy)-5-methoxyphenyl)amino)ethanone] was tested, and the EC50 (DENV-2 strain 16681) was 1.6 nM, the EC50 (DENV-4 strain EDEN) was 16 nM and the EC50 (DENV-4 strain H241) was 400 nM. The EC50 (DENV-2 16681 strain) was 1.6 nM and the EC50 (DENV-1 strain TC974#666) was 20 nM.
Compound `COc1cc(NC(C(=O)c2c[nH]c3cc(F)c(F)cc23)c2ccc(F)cc2OC)cc(OCCO)c1` (single isomer, unassigned) [Compound 10B, 1-(5,6-difluoro-1H-indol-3-yl)-2-(4-fluoro-2-methoxy-phenyl)-2-((3-(2-hydroxyethoxy)-5-methoxyphenyl)amino)ethanone] has an EC50 (DENV-2 strain 16681) of 3.2 nM, an EC50 (DENV-4 strain EDEN) of 20 nM and an EC50 (DENV-4 strain H241) of 390 nM. For the same compound, the EC50 (DENV-2 16681 strain) was 2.7 nM and the EC50 (DENV-1 strain TC974#666) was 16 nM.
Work on `COc1cc(NC(C(=O)c2c[nH]c3cc(OC)c(C)cc23)c2ccc(F)cc2OC)cc(OCCO)c1` (single isomer, unassigned) [Compound 6A, 2-(4-fluoro-2-methoxyphenyl)-2-((3-(2-hydroxyethoxy)-5-methoxyphenyl)amino)-1-(6-methoxy-5-methyl-1H-indol-3-yl)ethanone] yielded an EC50 (DENV-2 strain 16681) of 1.7 nM, an EC50 (DENV-4 strain EDEN) of 13 nM and an EC50 (DENV-4 strain H241) of 200 nM. The EC50 (DENV-2 16681 strain) was 2.7 nM and the EC50 (DENV-1 strain TC974#666) was 16 nM.
`COc1cc(NC(C(=O)c2c[nH]c3c(C)cc(F)cc23)c2ccc(F)cc2OC)cc(OCCO)c1` (single isomer, unassigned) [Compound 9B, 2-(4-fluoro-2-methoxyphenyl)-1-(5-fluoro-7-methyl-1H-indol-3-yl)-2-((3-(2-hydroxyethoxy)-5-methoxyphenyl)amino)ethanone] showed an EC50 (DENV-2 strain 16681) of 3.2 nM, an EC50 (DENV-4 strain EDEN) of 20 nM and an EC50 (DENV-4 strain H241) of 390 nM. It also gave an EC50 (DENV-2 16681 strain) of 3.4 nM and an EC50 (DENV-1 strain TC974#666) of 19 nM.
With `COc1cc(NC(C(=O)c2c[nH]c3cc(OC)c(F)cc23)c2ccc(F)cc2OC)cc(OCCO)c1` (single isomer, unassigned) [Compound 7A, 2-(4-fluoro-2-methoxyphenyl)-1-(5-fluoro-6-methoxy-1H-indol-3-yl)-2-((3-(2-hydroxyethoxy)-5-methoxyphenyl)amino)ethanone] the EC50 (DENV-2 strain 16681) was 3.4 nM, the EC50 (DENV-4 strain EDEN) was 23 nM and the EC50 (DENV-4 strain H241) was 470 nM. The EC50 (DENV-2 16681 strain) was 4.6 nM and the EC50 (DENV-1 strain TC974#666) was 29 nM.
`COc1cc(NC(C(=O)c2c[nH]c3c(C)c(Cl)ccc23)c2ccc(F)cc2OC)cc(OCCO)c1` (single isomer, unassigned) [Compound 3A, 1-(6-chloro-7-methyl-1H-indol-3-yl)-2-(4-fluoro-2-methoxyphenyl)-2-((3-(2-hydroxyethoxy)-5-methoxyphenyl)amino)ethanone] gave an EC50 (DENV-2 strain 16681) of 0.79 nM, an EC50 (DENV-4 strain EDEN) of 16 nM and an EC50 (DENV-4 strain H241) of 240 nM. It also gave an EC50 (DENV-2 16681 strain) of 0.77 nM and an EC50 (DENV-1 strain TC974#666) of 16 nM.
Compound `COc1cc(NC(C(=O)c2c[nH]c3c(C)c(F)ccc23)c2ccc(F)cc2OC)cc(OCCO)c1` (single isomer, unassigned) [Compound 2B, 2-(4-fluoro-2-methoxyphenyl)-1-(6-fluoro-7-methyl-1H-indol-3-yl)-2-((3-(2-hydroxyethoxy)-5-methoxyphenyl)amino)ethanone] has an EC50 (DENV-2 strain 16681) of 2.3 nM, an EC50 (DENV-4 strain EDEN) of 11 nM and an EC50 (DENV-4 strain H241) of 320 nM. It also gave an EC50 (DENV-2 16681 strain) of 2.2 nM and an EC50 (DENV-1 strain TC974#666) of 13 nM.
Work on `COc1cc(NC(C(=O)c2c[nH]c3c(F)c(F)ccc23)c2ccc(F)cc2OC)cc(OCCO)c1` (single isomer, unassigned) [Compound 5B, 1-(6,7-difluoro-1H-indol-3-yl)-2-(4-fluoro-2-methoxyphenyl)-2-((3-(2-hydroxyethoxy)-5-methoxyphenyl)amino)ethanone] yielded an EC50 (DENV-2 strain 16681) of 3.6 nM, an EC50 (DENV-4 strain EDEN) of 24 nM and an EC50 (DENV-4 strain H241) of 450 nM. For the same compound, the EC50 (DENV-2 16681 strain) was 2.5 nM and the EC50 (DENV-1 strain TC974#666) was 27 nM.
`COc1cc(NC(C(=O)c2c[nH]c3c(F)cc(C)cc23)c2ccc(F)cc2OC)cc(OCCO)c1` (single isomer, unassigned) [Compound 12B, 2-(4-fluoro-2-methoxyphenyl)-1-(7-fluoro-5-methyl-1H-indol-3-yl)-2-((3-(2-hydroxyethoxy)-5-methoxyphenyl)amino)ethanone] gave an EC50 (DENV-2 strain 16681) of 8.1 nM, an EC50 (DENV-4 strain EDEN) of 17 nM and an EC50 (DENV-4 strain H241) of 290 nM. For the same compound, the EC50 (DENV-2 16681 strain) was 5.1 nM and the EC50 (DENV-1 strain TC974#666) was 20 nM.
For `COc1cc(NC(C(=O)c2c[nH]c3cc(F)ccc23)c2ccc(F)cc2OC)cc(OCCO)c1` (single isomer, unassigned) [Compound 1A, 1-(6-fluoro-1H-indol-3-yl)-2-(4-fluoro-2-methoxyphenyl)-2-((3-(2-hydroxyethoxy)-5-methoxyphenyl)amino)ethanone], the EC50 (DENV-2 strain 16681) was 3.2 nM, the EC50 (DENV-4 strain EDEN) was 12 nM and the EC50 (DENV-4 strain H241) was 480 nM. For the same compound, the EC50 (DENV-2 16681 strain) was 3.8 nM and the EC50 (DENV-1 strain TC974#666) was 18 nM.
`COc1cc(NC(C(=O)c2c[nH]c3c(C)c(OC)ccc23)c2ccc(F)cc2OC)cc(OCCO)c1` (single isomer, unassigned) [Compound 11A, 2-(4-fluoro-2-methoxyphenyl)-2-((3-(2-hydroxyethoxy)-5-methoxyphenyl)amino)-1-(6-methoxy-7-methyl-1H-indol-3-yl)ethanone] was tested, and the EC50 (DENV-2 strain 16681) was 0.84 nM, the EC50 (DENV-4 strain EDEN) was 15 nM and the EC50 (DENV-4 strain H241) was 350 nM. It also gave an EC50 (DENV-2 16681 strain) of 0.81 nM and an EC50 (DENV-1 strain TC974#666) of 20 nM.

From US10206902B2, “Mono- or di-substituted indoles as dengue viral replication inhibitors” (priority 2014, dated 2019)
